Results: PubChem BioAssay (NCI)
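Grown in 96-well plates, cells were treated for 48 hours with each compound at five concentrations. Insufficient inhibition: endpoint recorded as highest concentration tested. GI50 marks 50% less growth. At the TGI there is no net growth.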

Legend:
Test in all cases: NCI anticancer screen, dose series, 48 h
[1] = test system: SW-620 colon
[2] = test system: SK-MEL-5 melanoma
[3] = test system: HCT-15 colon
[4] = test system: COLO 205 colon
[5] = test system: CAKI-1 renal
[6] = test system: HS 578T breast
[7] = test system: MDA-MB-231 breast
[8] = test system: A549 NSCLC
[9] = test system: NCI-H460 lung
[10] = test system: OVCAR-3 ovarian

SMILES	GI50 [1] [µM]	TGI [1] [µM]	GI50 [2] [µM]	TGI [2] [µM]	GI50 [3] [µM]	TGI [3] [µM]	GI50 [4] [µM]	TGI [4] [µM]	GI50 [5] [µM]	TGI [5] [µM]	GI50 [6] [µM]	TGI [6] [µM]	GI50 [7] [µM]	TGI [7] [µM]	GI50 [8] [µM]	TGI [8] [µM]	GI50 [9] [µM]	TGI [9] [µM]	GI50 [10] [µM]	TGI [10] [µM]
COC(=O)c1cc2c(cc1Cl)SC(N(N(C)C)S(=O)(=O)c1ccc(Cl)cc1)=NS2(=O)=O	14.3	27.4	14.6	27.7	14.1	27.1	13.4	29.8	21.3	46.1	18.8	48.6	17.1	44	17.2	> 100	18.7	37.4	13	37.8
COc1ccc(C(=O)N/N=C/c2ccc(O)cc2O)cc1Nc1ccnc(C(F)(F)F)c1	1.16	24.2	0.534	5.03	2.45	> 100	0.323	14.3	0.984	15.2	1.01	15.3	1.71	> 84.7	5.11	> 53.9	3.14	12.7	0.317	17.8
Nc1nc(Nc2ccc3c(c2)CCC(N2CCCC2)CC3)nn1-c1cc2c(nn1)-c1ccccc1CCC2 (stereo not drawn)	1.31	3.17	1.45	2.78	0.839	2.14	1.56	3.11	0.531	2.05	1.08	3.66	1.46	3.04	1.32	2.92	1.08	2.63	1.4	2.93
NCC(=O)CCC(=O)O	> 100	> 100	> 100	> 100	> 100	> 100	> 100	> 100	> 100	> 100	> 100	> 100	> 100	> 100	> 100	> 100	> 100	> 100	> 100	> 100
CC(C)(C)n1cc(-c2ccnc(NCCNS(=O)(=O)c3cccc4ccccc34)c2)c(-c2cccc(F)c2)n1	16.6	42.3	11.9	24.9	6	24.9	8.98	43.3	16	30.8	16.7	46	24.2	> 100	16.7	76.6	20	56.7	15.4	30.4
c1ccc2c(c1)ccc1c3ccccc3ccc21	> 50	> 50	> 50	> 50	> 50	> 50	> 50	> 50	> 50	> 50	> 50	> 50	> 50	> 50	> 50	> 50	> 50	> 50	> 50	> 50
Clc1ccc(Nc2nc3ccccc3c3occc23)cc1	8.04	14.8	7.52	14.1	11.2	34.4	6	13	3.07	10.2	6.95	16.3	9.1	24.7	8.13	16.8	13	35.2	5.92	12.1
C=C(C(=O)OC)[C@@H]1C[C@@H](O)[C@]2(C)CC/C=C(\C)CCC[C@H](C)[C@H](O)C1O2	42.2	> 100	26.3	79.5	59	> 100	36.1	> 100	45.5	> 100	32.8	> 100	58.5	> 100	61.3	> 100	75.5	> 100	31.3	92.7
COC(=O)[C@]12CC[C@@H](C)[C@H](C)[C@@H]1C1=CC[C@@H]3[C@@]4(C)C=C(O)C(=O)C(C)=C4CC[C@@]3(C)[C@]1(C)CC2	17.3	35.7	15.4	28.8	11.9	27.6	12.5	30.1	12.4	31.4	22.2	57.1	13	30.2	15.1	31.2	18.9	37.3	11.6	24.5
CN1CCN(c2cc(Nc3cc(C4CC4)[nH]n3)nc(Nc3ccc(CC(=O)NCc4cccc(F)c4)cc3)n2)CC1	0.12	2.72	1.42	3.08	2.9	14.5	0.0713	0.607	0.823	4.74	0.28	2.34	0.451	6.16	0.77	11.3	0.536	3.68	1.59	16.5
C[C@@]12CCC[C@@](C)(C(=O)O)C1CC[C@@]13CC(=O)[C@@](CO)(CCC12)C3 (stereo partly drawn)	> 100	> 100	> 100	> 100	> 100	> 100	> 100	> 100	> 100	> 100	> 100	> 100	> 100	> 100	> 100	> 100	> 100	> 100	> 100	> 100
CCN1CCCCC(=N\O)/C(=N/O)CCCC1	–	> 100	–	> 100	–	> 100	–	> 100	–	> 100	–	> 100	–	> 100	–	> 100	–	> 100	–	> 100
CC(C)(C)c1nnc2n(c1=O)N=CC(c1ccc(Br)cc1)S2 (stereo not drawn)	35.1	> 100	18.6	38.3	20.1	48	39.2	> 100	24.7	62.5	35.2	91.1	24.5	48.1	43	> 100	30.1	> 100	21.8	70.8
CC1(C)CC[C@]2(C(=O)O)CC[C@]3(C)[C@H](CC[C@@H]4[C@@]5(C)CCC(=O)C(C)(C)[C@@H]5CC[C@]43C)[C@H]2[C@H]1OC(=O)C(F)(F)F	11.6	28.1	8.11	20.6	4.99	18.1	6.58	23.6	12.8	25.7	20.3	83.5	13.5	31.4	9.66	31.6	7.65	29.7	12.4	26.4
O=[N+]([O-])c1ccc2c(c1)S(=O)c1ccccc1-2 (stereo not drawn)	–	> 100	–	> 100	–	> 100	–	> 100	–	> 100	–	> 100	–	> 100	–	> 100	–	> 100	–	> 100
O=C1C=C(Nc2nc(C(=O)O)cc(=O)[nH]2)c2ccccc2C1=O	–	> 100	–	> 100	–	> 100	–	> 100	–	> 100	–	> 100	–	> 100	–	> 100	–	> 100	–	> 100
O=C1C(=O)c2c(nc3ncccn23)-c2ccccc21	0.214	0.461	0.167	0.304	0.166	0.358	2.13	4.53	0.64	1.9	0.244	0.631	0.215	0.67	0.23	0.516	0.227	0.526	0.204	0.5
Cc1ccc(-n2c(-c3ccc(Cl)cc3)cs/c2=N\NC(=O)COc2n[nH]c(=O)c3ccccc23)cc1	> 100	> 100	> 100	> 100	> 100	> 100	> 100	> 100	25.7	72.7	27.5	> 100	68.4	> 100	> 100	> 100	> 100	> 100	> 100	> 100
OC(C(=Nc1ccccc1)c1ccccc1)c1ccccc1 (stereo not drawn)	–	66.5	–	5.87	–	> 100	–	20.9	–	30.3	–	7.11	–	39.3	–	33.6	–	34.3	–	14.3
COc1ccc(-c2[nH]ncc2-c2cc(OC)c(OC)c(OC)c2)cc1	< 0.01	> 41.5	< 0.01	0.0551	< 0.01	> 80.6	< 0.01	< 0.01	< 0.01	25	< 0.01	7.24	0.0271	–	< 0.01	> 38	< 0.01	1.3	< 0.01	–
COc1ccc2sc3c(NCCCNCCO)nc4ccccc4c3c(=O)c2c1	1.61	3.13	1.76	3.18	1.45	2.87	1.66	3.65	1.57	2.99	1.42	3.48	1.48	2.95	1.68	3.31	1.51	2.96	1.74	3.21
CCOC(=O)c1cnc2c(cnn2CC)c1NN=C(C)C	83.8	> 100	33.1	> 100	32	> 100	58.7	> 100	22.9	> 100	24.1	87.9	45.1	> 100	40.1	> 100	57.5	> 100	39.5	> 100
O=C(Nc1ccccc1F)c1ccc(NC2=C(Cl)C(=O)N(Cc3ccccc3)C2=O)cc1	3.29	9.93	4.41	16.2	3.38	12.3	9.03	21	1.7	3.25	2.95	9.4	2.8	13.8	13.5	26.3	6.6	19.3	1.68	3.05
Cc1nc2ccc(NCCN(C)C)c3c(=O)c4cc(O)ccc4n1c23	–	4.53	–	10.5	–	2.8	–	2.3	–	3.94	–	2.77	–	13.2	–	3.39	–	1.39	–	9.94
Cc1[nH]nc(C(=O)Nc2n[nH]c3ccccc23)c1[N+](=O)[O-]	> 100	> 100	> 60.1	> 100	33.4	> 100	63.4	> 100	> 100	> 100	> 68.7	> 100	> 100	> 100	> 66.6	> 100	> 85.1	> 100	> 100	> 100
Oc1ccc(-c2nc3ccc4[nH]ncc4c3c3c2CCCC3)c2cccnc12	0.123	11.1	0.597	1.56	0.153	7.3	0.89	2.42	0.12	0.886	0.163	2.67	0.423	6.79	0.134	2.14	0.122	0.863	0.491	7.3
